# Reference: US5668134A, “Method for preventing or reducing photosensitivity and/or phototoxicity reactions to medications” (priority 1994, dated 1997)
# Where “and” joins values, the source holds several entries; their conditions need not be identical. Equal entries are not always repeated. Structures can show the parent of a compound that is named as a salt.
# Tests used:
# [1] = Physicochemical properties of lomefloxacin HCl
# [2] = Pharmacokinetics in patients with cirrhosis; type: in vivo, human; details: 12 patients with cirrhosis, 400 mg single dose
# [3] = system: Moraxella (Branhamella) catarrhalis; assay: Activity in vitro and in clinical infections; type: cell-based
# [4] = system: bacterial enzyme DNA gyrase; assay: Interference with bacterial DNA gyrase; type: biochemical
# [5] = system: skin of healthy volunteers; assay: Example 5: severity of radiation-induced photoreactions (edema or blisters)
# Protocol: The number of skin patches with edema, or local swelling of the skin surface, were also counted. MEDs were measured separately for UVA and UVB radiation, and for UVA radiation alone. The baseline MED was defined in the manner described hereinabove. The 24 hour evaluation was allowed to be performed in the morning of Study Day 1. Severity of reactions causing edema and/or blisters were graded under the following grading system:
# Severity was assessed by comparing the numbers of subjects with responses graded as 2 (edema) or 3 (blisters).
# [6] = Example 5: lomefloxacin plasma concentrations; details: for concentration at 14 h: Hour 14, mean; for plasma concentration, Hour 86: 72 hours following last active dose
# [7] = UVA & UVB, a.m., 0 h post-radiation
# [8] = UVA & UVB, a.m., 3 h post-radiation
# [9] = UVA & UVB, a.m., 6 h post-radiation
# [10] = UVA & UVB, a.m., 24 h post-radiation
# [11] = UVA & UVB, a.m., 48 h post-radiation
# [12] = UVA & UVB, a.m., 72 h post-radiation
# [13] = UVA & UVB, p.m., 0 h post-radiation
# [14] = UVA & UVB, p.m., 3 h post-radiation
# [15] = UVA & UVB, p.m., 6 h post-radiation
# [16] = UVA & UVB, p.m., 24 h post-radiation
# [17] = UVA & UVB, p.m., 48 h post-radiation
# [18] = UVA & UVB, p.m., 72 h post-radiation
# [19] = human, plasma, mean, a.m. dosing
# [20] = human, plasma, mean, p.m. dosing
smiles,measurement,setting,value
"CCn1cc(C(=O)O)c(=O)c2cc(F)c(N3CCNC(C)C3)c(F)c21 (racemic) [lomefloxacin HCl, monohydrochloride salt of (±)-1-ethyl-6,8-difluoro-1,4-dihydro-7-(3-methyl-1-piperazinyl)-4-oxo-3-quinolinecarboxylic acid]",solubility in alcohol,[1],practically insoluble in alcohol
same,solubility in water,[1],slightly soluble in water
same,"changes in rate or extent of exposure (Cmax, Tmax, t1/2 or AUC)",[2],no significant changes
same,activity against most strains,[3],active against most strains
same,mechanism of bactericidal action,[4],interference with the activity of the bacterial enzyme DNA gyrase
same,"NUMBER OF SUBJECTS WITH SCORE >= 2, COUNT",[5]; [7],0 subjects
same,"SUBJECTS WITH SCORE >= 2, PERCENT",[5]; [7],0.00%
same,"NUMBER OF SUBJECTS WITH SCORE >= 2, COUNT",[5]; [8],0 subjects
same,"SUBJECTS WITH SCORE >= 2, PERCENT",[5]; [8],0.00%
same,"NUMBER OF SUBJECTS WITH SCORE >= 2, COUNT",[5]; [9],2 subjects
same,"SUBJECTS WITH SCORE >= 2, PERCENT",[5]; [9],15.38%
same,"NUMBER OF SUBJECTS WITH SCORE >= 2, COUNT",[5]; [10],0 subjects
same,"SUBJECTS WITH SCORE >= 2, PERCENT",[5]; [10],0.00%
same,"NUMBER OF SUBJECTS WITH SCORE >= 2, COUNT",[5]; [11],0 subjects
same,"SUBJECTS WITH SCORE >= 2, PERCENT",[5]; [11],0.00%
same,"NUMBER OF SUBJECTS WITH SCORE >= 2, COUNT",[5]; [12],0 subjects
same,"SUBJECTS WITH SCORE >= 2, PERCENT",[5]; [12],0.00%
same,"NUMBER OF SUBJECTS WITH SCORE >= 2, COUNT",[5]; [13],0 subjects
same,"SUBJECTS WITH SCORE >= 2, PERCENT",[5]; [13],0.00%
same,"NUMBER OF SUBJECTS WITH SCORE >= 2, COUNT",[5]; [14],0 subjects
same,"SUBJECTS WITH SCORE >= 2, PERCENT",[5]; [14],0.00%
same,"NUMBER OF SUBJECTS WITH SCORE >= 2, COUNT",[5]; [15],0 subjects
same,"SUBJECTS WITH SCORE >= 2, PERCENT",[5]; [15],0.00%
same,"NUMBER OF SUBJECTS WITH SCORE >= 2, COUNT",[5]; [16],1 subjects
same,"SUBJECTS WITH SCORE >= 2, PERCENT",[5]; [16],7.69%
same,"NUMBER OF SUBJECTS WITH SCORE >= 2, COUNT",[5]; [17],0 subjects
same,"SUBJECTS WITH SCORE >= 2, PERCENT",[5]; [17],0.00%
same,"NUMBER OF SUBJECTS WITH SCORE >= 2, COUNT",[5]; [18],0 subjects
same,"SUBJECTS WITH SCORE >= 2, PERCENT",[5]; [18],0.00%
same,"NUMBER OF SUBJECTS WITH SCORE >= 2, COUNT","[5]; UVA, a.m., 0 h post-radiation",1 subjects
same,"SUBJECTS WITH SCORE >= 2, PERCENT","[5]; UVA, a.m., 0 h post-radiation",7.69%
same,"NUMBER OF SUBJECTS WITH SCORE >= 2, COUNT","[5]; UVA, a.m., 3 h post-radiation",6 subjects
same,"SUBJECTS WITH SCORE >= 2, PERCENT","[5]; UVA, a.m., 3 h post-radiation",46.15%
same,"NUMBER OF SUBJECTS WITH SCORE >= 2, COUNT","[5]; UVA, a.m., 6 h post-radiation",9 subjects
same,"SUBJECTS WITH SCORE >= 2, PERCENT","[5]; UVA, a.m., 6 h post-radiation",69.23% and 69%
same,"NUMBER OF SUBJECTS WITH SCORE >= 2, COUNT","[5]; UVA, a.m., 24 h post-radiation",5 subjects
same,"SUBJECTS WITH SCORE >= 2, PERCENT","[5]; UVA, a.m., 24 h post-radiation",38.46%
same,"NUMBER OF SUBJECTS WITH SCORE >= 2, COUNT","[5]; UVA, a.m., 48 h post-radiation",2 subjects
same,"SUBJECTS WITH SCORE >= 2, PERCENT","[5]; UVA, a.m., 48 h post-radiation",15.38%
same,"NUMBER OF SUBJECTS WITH SCORE >= 2, COUNT","[5]; UVA, a.m., 72 h post-radiation",0 subjects
same,"SUBJECTS WITH SCORE >= 2, PERCENT","[5]; UVA, a.m., 72 h post-radiation",0.00%
same,"NUMBER OF SUBJECTS WITH SCORE >= 2, COUNT","[5]; UVA, p.m., 0 h post-radiation",0 subjects
same,"SUBJECTS WITH SCORE >= 2, PERCENT","[5]; UVA, p.m., 0 h post-radiation",0.00%
same,"NUMBER OF SUBJECTS WITH SCORE >= 2, COUNT","[5]; UVA, p.m., 3 h post-radiation",0 subjects
same,"SUBJECTS WITH SCORE >= 2, PERCENT","[5]; UVA, p.m., 3 h post-radiation",0.00%
same,"NUMBER OF SUBJECTS WITH SCORE >= 2, COUNT","[5]; UVA, p.m., 6 h post-radiation",0 subjects
same,"SUBJECTS WITH SCORE >= 2, PERCENT","[5]; UVA, p.m., 6 h post-radiation",0.00%
same,"NUMBER OF SUBJECTS WITH SCORE >= 2, COUNT","[5]; UVA, p.m., 24 h post-radiation",0 subjects
same,"SUBJECTS WITH SCORE >= 2, PERCENT","[5]; UVA, p.m., 24 h post-radiation",0.00%
same,"NUMBER OF SUBJECTS WITH SCORE >= 2, COUNT","[5]; UVA, p.m., 48 h post-radiation",0 subjects
same,"SUBJECTS WITH SCORE >= 2, PERCENT","[5]; UVA, p.m., 48 h post-radiation",0.00%
same,"NUMBER OF SUBJECTS WITH SCORE >= 2, COUNT","[5]; UVA, p.m., 72 h post-radiation",0 subjects
same,"SUBJECTS WITH SCORE >= 2, PERCENT","[5]; UVA, p.m., 72 h post-radiation",0.00%
same,AUC,[6]; [19],47000 ng·h/mL
same,AUC,[6]; [20],40000 ng·h/mL
same,Cmax,[6]; [19],3000 ng/mL
same,Cmax,[6]; [20],2900 ng/mL
same,Tmax,"[6]; human, plasma, Tmax, mean, a.m. dosing, sample hour scale",14.9 h
same,Tmax,"[6]; human, plasma, Tmax, mean, p.m. dosing",2.9 h
same,concentration at 2 h,"[6]; human, plasma, plasma concentration, Hour 2, mean, mean, a.m. dosing, 12 hours prior to last active dose",1100 ng/mL
same,concentration at 2 h,"[6]; human, plasma, plasma concentration, Hour 2, mean, mean, p.m. dosing, 2 hours following last active dose",2900 ng/mL
same,concentration at 14 h,"[6]; human, plasma, plasma concentration, mean, a.m. dosing, immediately prior to last active dose",300 ng/mL
same,concentration at 14 h,"[6]; human, plasma, plasma concentration, mean, p.m. dosing, 14 hours following last active dose",1000 ng/mL
same,concentration at 2 h,"[6]; human, plasma, plasma concentration, Hour 16, individual subjects, a.m. dosing, 2 hours following last active dose",2920 ng/mL
same,concentration at 2 h,"[6]; human, plasma, plasma concentration, Hour 16, mean, mean, a.m. dosing, 2 hours following last active dose",3100 ng/mL
same,concentration at 16 h,"[6]; human, plasma, plasma concentration, Hour 16, mean, mean, p.m. dosing, 16 hours following last active dose",800 ng/mL
same,concentration at 5 h,"[6]; human, plasma, plasma concentration, Hour 19, individual subjects, a.m. dosing, 5 hours following last active dose",1850 ng/mL
same,concentration at 5 h,"[6]; human, plasma, plasma concentration, Hour 19, mean, mean, a.m. dosing, 5 hours following last active dose",2200 ng/mL
same,concentration at 19 h,"[6]; human, plasma, plasma concentration, Hour 19, mean, mean, p.m. dosing, 19 hours following last active dose",600 ng/mL
same,concentration at 24 h,"[6]; human, plasma, plasma concentration, Hour 38, mean, mean, a.m. dosing, 24 hours following last active dose",300 ng/mL
same,concentration at 38 h,"[6]; human, plasma, plasma concentration, Hour 38, mean, mean, p.m. dosing, 38 hours following last active dose",100 ng/mL
same,"plasma concentration, Hour 16","[6]; individual subjects, a.m. dosing, 2 hours following last active dose, 120 min",2420 ng/mL and 3160 ng/mL and 3730 ng/mL and 3000 ng/mL and 3660 ng/mL and 2650 ng/mL and 2840 ng/mL and 2950 ng/mL and 3050 ng/mL and 2940 ng/mL and 4040 ng/mL and 2580 ng/mL
same,"plasma concentration, Hour 19","[6]; individual subjects, a.m. dosing, 5 hours following last active dose, 300 min",1710 ng/mL and 1810 ng/mL and 2370 ng/mL and 2360 ng/mL and 2280 ng/mL and 1780 ng/mL and 2060 ng/mL and 1750 ng/mL and 1720 ng/mL and 2880 ng/mL and 3060 ng/mL and 2390 ng/mL
same,"plasma concentration, Hour 2","[6]; individual subjects, a.m. dosing, 12 hours prior to last active dose, 120 min",786 ng/mL and 1030 ng/mL and 889 ng/mL and 1460 ng/mL and 1360 ng/mL and 711 ng/mL and 1090 ng/mL and 840 ng/mL and 915 ng/mL and 1200 ng/mL and 1280 ng/mL and 1110 ng/mL and 1500 ng/mL
same,"plasma concentration, Hour 0","[6]; individual subjects, a.m. dosing, 14 hours prior to last active dose",1160 ng/mL and 1060 ng/mL and 1540 ng/mL and 1520 ng/mL and 1350 ng/mL and 901 ng/mL and 1370 ng/mL and 1080 ng/mL and 1180 ng/mL and 1720 ng/mL and 1360 ng/mL and 1800 ng/mL
same,"plasma concentration, Hour 38","[6]; individual subjects, a.m. dosing, 24 hours following last active dose, 1440 min",230 ng/mL and 318 ng/mL and 281 ng/mL and 346 ng/mL and 467 ng/mL and 319 ng/mL and 251 ng/mL and 361 ng/mL and 201 ng/mL and 157 ng/mL and 258 ng/mL and 263 ng/mL and 367 ng/mL
same,"plasma concentration, Hour 62","[6]; individual subjects, a.m. dosing, 48 hours following last active dose, 2880 min",39 ng/mL and 64 ng/mL and 27 ng/mL and 54 ng/mL and 73 ng/mL and 35 ng/mL and 53 ng/mL and 21 ng/mL and 16 ng/mL and 36 ng/mL
same,"plasma concentration, Hour 86","[6]; individual subjects, a.m. dosing",0 ng/mL
same,"plasma concentration, Hour 86","[6]; individual subjects, a.m. dosing, 4320 min",11 ng/mL and 16 ng/mL and 6 ng/mL and 13 ng/mL and 19 ng/mL and 7 ng/mL and 9 ng/mL and 17 ng/mL
same,"plasma concentration, Hour 14","[6]; individual subjects, a.m. dosing, immediately prior to last active dose, 840 min",271 ng/mL and 368 ng/mL and 243 ng/mL and 385 ng/mL and 479 ng/mL and 297 ng/mL and 210 ng/mL and 350 ng/mL and 204 ng/mL and 279 ng/mL and 317 ng/mL and 283 ng/mL and 419 ng/mL
same,Tmax,"[6]; individual subjects, a.m. dosing, sample hour scale",16 h and 0 h
same,Tmax,"[6]; individual subjects, p.m. dosing",14 h
same,"plasma concentration, Hour 0, mean","[6]; mean, a.m. dosing, 14 hours prior to last active dose",1300 ng/mL
